Converted amounts (≈) assume the structure as drawn. Bridge positions count the residues as written; N and C are the ends. Square brackets hold non-standard residues; d marks the D form. Peptide text beside a SMILES is read from it. * marks the point of attachment. Heptanoyl(6-Me) = CC(C)CCCCC(=O)*; Orn = NCCC[C@H](N)C(=O)O; Dab = NCC[C@H](N)C(=O)O; Dap = NC[C@H](N)C(=O)O

As a reminder, the MIC is the smallest concentration in the dilution series that meets the test's criterion for growth inhibition. By IC50 is commonly meant the concentration that inhibits the measured activity by half. A low value points to greater potency in that assay.

For data set [1], the system named is Escherichia coli. As to the kind of experiment: Antibacterial activity against Escherichia coli ATCC BAA-2523 assessed as inhibition of bacterial growth incubated for 16 to 20 hrs by CLSI protocol based broth microdilution method. The data set is classed as functional. To be noted: time 16-20 hrs.
Data set [2] relates to Escherichia coli. The experiment in a line: Antibacterial activity against carbapenem-resistant Escherichia coli ATCC BAA-2340 assessed as inhibition of bacterial growth incubated for 16 to 20 hrs by CLSI protocol based broth microdilution method. To be noted: time 16-20 hrs. The data set is classed as functional. (In general: Dilution methods test growth across graded concentrations, often in twofold steps.)

Data set [3] concerns Klebsiella pneumoniae. As to the kind of experiment: Antibacterial activity against carbapenem-resistant Klebsiella pneumoniae clinical isolate KPN+19-15 assessed as inhibition of bacterial growth incubated for 16 to 20 hrs by CLSI protocol based broth microdilution method. The data set is classed as functional. To be noted: time 16-20 hrs.
The test system of data set [4] is Klebsiella pneumoniae. As to the kind of experiment: Antibacterial activity against carbapenem-resistant Klebsiella pneumoniae ATCC BAA-1705 assessed as inhibition of bacterial growth incubated for 16 to 20 hrs by CLSI protocol based broth microdilution method. The data set is classed as functional. To be noted: time 16-20 hrs.
Data set [5] deals with Pseudomonas aeruginosa. As to the kind of experiment: Antibacterial activity against carbapenem-resistant Pseudomonas aeruginosa clinical isolate 19-3 assessed as inhibition of bacterial growth incubated for 16 to 20 hrs by CLSI protocol based broth microdilution method. It counts as functional. To be noted: time 16-20 hrs.
In data set [6] the test system is Pseudomonas aeruginosa. The experiment in a line: Antibacterial activity against Pseudomonas aeruginosa ATCC 27853 assessed as inhibition of bacterial growth incubated for 16 to 20 hrs by CLSI protocol based broth microdilution method. It counts as functional. Particulars: time 16-20 hrs.
The test system of data set [7] is Acinetobacter baumannii. As to the kind of experiment: Antibacterial activity against carbapenem-sensitive Acinetobacter baumannii clinical isolate 19-1 assessed as inhibition of bacterial growth incubated for 16 to 20 hrs by CLSI protocol based broth microdilution method. It counts as functional. To be noted: time 16-20 hrs.
The subject of data set [8] is Acinetobacter baumannii. The experiment in a line: Antibacterial activity against Acinetobacter baumannii NCTC 13304 (OXA-27) assessed as inhibition of bacterial growth incubated for 16 to 20 hrs by CLSI protocol based broth microdilution method. The data set is classed as functional. To be noted: time 16-20 hrs.
Data set [9] is described as follows: Renal cytotoxicity against HK-2 cells incubated for 72 hrs by CCK8 assay. To be noted: human. The data set is classed as toxicity, cell-based. Background: Tetrazolium assays rely on reduction of a dye to a coloured formazan, in cell work by metabolically active cells.

`CC(C)CCCCC(=O)N[C@@H](CCN)C(=O)N[C@H](C(=O)N[C@H](CO)C(=O)N[C@H]1CCNC(=O)[C@H]([C@@H](C)O)NC(=O)[C@H](CN)NC(=O)[C@H](CCN)NC(=O)[C@H]([C@@H](C)O)NC(=O)[C@@H](Cc2ccccc2)NC(=O)[C@H](CCN)NC1=O)[C@@H](C)O` ({Heptanoyl(6-Me)}-[Dab]T[dS][Dab][Dab][dF]T[Dab][Dap]T; lactam 4-C): the MIC was at most 0.03 µg/mL in the data set with Escherichia coli [1]; at most 0.03 µg/mL in the data set on Escherichia coli [2]; at most 0.03 µg/mL in the data set on Klebsiella pneumoniae [3]; 0.06 µg/mL (≈ 0.0522 µM) with Klebsiella pneumoniae [4]; 8 µg/mL (≈ 6.95 µM) with Pseudomonas aeruginosa [5]; 8 µg/mL (≈ 6.95 µM) in the data set on Pseudomonas aeruginosa [6]. Moreover, the MIC with Acinetobacter baumannii [7] is 0.06 µg/mL (≈ 0.0522 µM); in the data set on Acinetobacter baumannii [8], at most 0.03 µg/mL. In addition, in [9], the IC50 at 72 h is over 500 µg/mL.
Consider `CC(C)CCCCC(=O)N[C@@H](CCN)C(=O)N[C@H](C(=O)N[C@H](CO)C(=O)N[C@H]1CCNC(=O)[C@H]([C@@H](C)O)NC(=O)[C@H](CCCN)NC(=O)[C@H](CCN)NC(=O)[C@H]([C@@H](C)O)NC(=O)[C@@H](Cc2ccccc2)NC(=O)[C@H](CCN)NC1=O)[C@@H](C)O` ({Heptanoyl(6-Me)}-[Dab]T[dS][Dab][Dab][dF]T[Dab][Orn]T; lactam 4-C), for which the MIC with Escherichia coli [1] was 0.25 µg/mL (≈ 0.212 µM); with Escherichia coli [2], 0.25 µg/mL (≈ 0.212 µM); in the data set on Klebsiella pneumoniae [3], 0.5 µg/mL (≈ 0.424 µM); with Klebsiella pneumoniae [4], 1 µg/mL (≈ 0.849 µM); with Pseudomonas aeruginosa [5], over 64 µg/mL; in the data set with Pseudomonas aeruginosa [6], over 64 µg/mL. Further, the MIC in the data set on Acinetobacter baumannii [7] and in the data set on Acinetobacter baumannii [8] was 8 µg/mL (≈ 6.79 µM) each time. Besides, in data set [9], the IC50 at 72 h was over 500 µg/mL.
For `CC(C)CCCCC(=O)N[C@@H](CN)C(=O)N[C@H](C(=O)N[C@H](CO)C(=O)N[C@H]1CCNC(=O)[C@H]([C@@H](C)O)NC(=O)[C@H](CCN)NC(=O)[C@H](CCN)NC(=O)[C@H]([C@@H](C)O)NC(=O)[C@@H](Cc2ccccc2)NC(=O)[C@H](CCN)NC1=O)[C@@H](C)O` ({Heptanoyl(6-Me)}-[Dap]T[dS][Dab][Dab][dF]T[Dab][Dab]T; lactam 4-C), the MIC in the data set with Escherichia coli [1] was at most 0.03 µg/mL; in the data set on Escherichia coli [2], at most 0.03 µg/mL; with Klebsiella pneumoniae [3] it was 0.5 µg/mL (≈ 0.435 µM); in the data set on Klebsiella pneumoniae [4], 0.25 µg/mL (≈ 0.217 µM); with Pseudomonas aeruginosa [5] it was 4 µg/mL (≈ 3.48 µM); in the data set with Pseudomonas aeruginosa [6], 64 µg/mL (≈ 55.6 µM). Further, the minimum inhibitory concentration (MIC) with Acinetobacter baumannii [7] and in the data set on Acinetobacter baumannii [8] was 0.25 µg/mL (≈ 0.217 µM) throughout. In addition, in data set [9], the IC50 at 72 h was over 500 µg/mL.
Take `CC(C)CCCCC(=O)N[C@@H](CCN)C(=O)N[C@H](C(=O)N[C@@H](CCCN)C(=O)N[C@H]1CCNC(=O)[C@H]([C@@H](C)O)NC(=O)[C@H](CCN)NC(=O)[C@H](CCN)NC(=O)[C@H]([C@@H](C)O)NC(=O)[C@@H](Cc2ccccc2)NC(=O)[C@H](CCN)NC1=O)[C@@H](C)O` ({Heptanoyl(6-Me)}-[Dab]T[Orn][Dab][Dab][dF]T[Dab][Dab]T; lactam 4-C): the MIC with Escherichia coli [1] is at most 0.03 µg/mL; in the data set with Escherichia coli [2], at most 0.03 µg/mL; in the data set with Klebsiella pneumoniae [3], at most 0.03 µg/mL; with Klebsiella pneumoniae [4] it was at most 0.03 µg/mL; in the data set with Pseudomonas aeruginosa [5], 0.25 µg/mL (≈ 0.21 µM); with Pseudomonas aeruginosa [6], at most 0.03 µg/mL. Moreover, the minimal inhibitory concentration (MIC) was determined as 0.125 µg/mL (≈ 0.105 µM) in the data set with Acinetobacter baumannii [7] and 0.06 µg/mL (≈ 0.0504 µM) with Acinetobacter baumannii [8]. Moreover, the IC50 at 72 h in data set [9] is over 500 µg/mL.

Values taken from ChEMBL document CHEMBL6078630, “Design, synthesis, and bioactivity investigation of novel cyclic lipopeptide antibiotics targeting top-priority multidrug-resistant gram-negative bacteria” (Eur J Med Chem, 2024).
